Measured values: article PMC9692424, “In Vitro Screening for Anti-Acetylcholinesterase and Antioxidant Activities of Hottonia palustris L. Extracts and Their Unusual Flavonoids” (Molecules, 2022)
Where two headings read alike, the source gives them in different places.

Experiments:
[1] = Free radical scavenging activity (DPPH assay); settings: compounds 1–19; Trolox equivalents; mean ± SD, triplicate
Protocol: The methanolic solutions of fractions or compounds (130 µL) were added to the DPPH solution (70 µL). The sample’s absorbance was recorded after 30 min of incubation in darkness. All tests were performed in triplicate [33]. The radical scavenging activity of the tested samples was calculated using an equation obtained through linear regression of the Trolox standard curve. The methanolic solutions of fractions or compounds (130 µL) were added to the DPPH solution (70 µL). The sample absorbance was recorded after 30 min of incubation in darkness. All tests were performed in triplicate [33]. The radical scavenging activity of the tested samples was calculated using the equation obtained through linear regression of the Trolox standard curve.

[2] = ABTS radical cation scavenging activity (Antioxidant Assay Kit); settings: compounds 1–19; Trolox equivalents; mean ± SD, triplicate
Protocol: The potential inhibition of the production of the radical cation was measured using an Antioxidant Assay Kit. In short, the mixed solution, including 10 µL of the test sample, 20 µL of the myoglobin working solution, and 150 µL of the ABTS working solution, was incubated for 5 min. Then, 100 µL of the stop solution was added, and the absorbance was measured at 405 nm. All tests were performed in triplicate. The results were expressed as µM of Trolox equivalents obtained from the standard curve.

[3] = Cupric ion reducing method (CUPRAC); settings: compounds 1–19; Trolox equivalents; mean ± SD, triplicate; na = no significant activity
Protocol: The total antioxidant capacity was determined using an Antioxidant Assay Kit MAK334. In short, 20 µL of each fraction or compound solution was added to 100 µL of the Reaction Mix in the clear, flat-bottomed 96-well plate. The absorbance was measured at 570 nm after 10 min of incubation at room temperature. The results were determined using a standard curve evaluated for Trolox.

[4] = target: acetylcholinesterase (AChE) (Homo sapiens, UniProt P22303); assay: biochemical
Protocol: Acetylcholinesterase inhibition was determined according to the previously described method [34] with a slight modification. The assay was carried out in Tris-HCl buffer (pH = 8 at 25 °C). The test extracts or compounds were diluted in the same buffer to the appropriate concentrations. Firstly, the reaction mixture containing the sample solution (50 µL), AChE solution (25 µL, 0.25 U/mL), and Ellman’s Reagent (3 mM, 125 µL) was incubated for 15 min at room temperature. Subsequently, 25 µL of ACh iodide (15 mM) was added, and after a further quarter-hour of incubation, the absorbance was estimated at 405 nm. The blank well contained the same amount of Tris-HCl buffer instead of the sample solution. […] All measurements were conducted in triplicate, and the values are presented as IC50 means with standard deviations (SDs). The percent inhibition was calculated using the following formula:Enzyme inhibition activity (%) = (B − S)/B × 100% where B is the blank, and S is the sample absorbance.

[5] = Ferric-reducing antioxidant power method (FRAP); settings: compounds 1–19; ferrous ion equivalents; mean ± SD, triplicate; na = no significant activity
Protocol: The ferric-reducing power was measured using the Ferric-Reducing Antioxidant Power Assay Kit. In brief, 10 µL of the tested solution was added to 190 µL of the reaction solutions (containing FRAP Assay Buffer, FeCl3 solution, and FRAP Probe). All of the absorbance values were recorded at 594 nm after 1 h of incubation at 37 °C. The chelating activity was determined using a standard curve and evaluated as mM of ferrous ion equivalents. All tests were performed in triplicate.

[6] = compounds 1–19, mean ± SD, at least triplicate, read-out: AChE IC50

Chain of acetylcholinesterase (AChE) (P22303 32-614): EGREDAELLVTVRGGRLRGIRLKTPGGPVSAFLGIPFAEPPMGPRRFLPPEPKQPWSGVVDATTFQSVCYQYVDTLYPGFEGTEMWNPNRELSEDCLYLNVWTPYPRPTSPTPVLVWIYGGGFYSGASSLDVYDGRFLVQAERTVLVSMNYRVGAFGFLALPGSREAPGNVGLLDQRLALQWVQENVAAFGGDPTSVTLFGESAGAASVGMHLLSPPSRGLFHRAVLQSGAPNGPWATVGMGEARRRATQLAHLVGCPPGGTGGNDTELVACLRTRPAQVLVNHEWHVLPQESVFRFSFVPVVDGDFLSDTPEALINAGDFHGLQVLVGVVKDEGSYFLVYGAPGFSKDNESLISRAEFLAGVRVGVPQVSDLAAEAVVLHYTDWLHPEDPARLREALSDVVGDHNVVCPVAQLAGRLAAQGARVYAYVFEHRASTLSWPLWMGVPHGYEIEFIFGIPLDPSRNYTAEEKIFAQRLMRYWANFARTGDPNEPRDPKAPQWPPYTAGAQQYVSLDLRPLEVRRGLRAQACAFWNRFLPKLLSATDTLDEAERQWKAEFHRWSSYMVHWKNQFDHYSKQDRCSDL

| SMILES | DPPH [1] [µM Teq] | ABTS [2] [µM Teq] | CUPRAC [3] [µM Teq] | IC50 [4, 6] [µM] | FRAP [5] [mM Fe^2+/mL] | IC50 [4] [µM] |
| --- | --- | --- | --- | --- | --- | --- |
| O=C(CC(=O)c1ccccc1)c1ccccc1 [Compound 1, 1,3-diphenylpropane-1,3-dione] | 39.81 ± 2.76 | 300.12 ± 4.97 | 3.18 ± 0.32 | 144.8 ± 1.3 | – | – |
| O=c1cc(-c2ccccc2)oc2cccc(O)c12 [Compound 2, 5-hydroxyflavone] | 41.71 ± 2.28 | 317.47 ± 3.91 | – | 314.4 ± 1.72 | – | – |
| COc1ccccc1-c1cc(=O)c2c(O)cccc2o1 [Compound 3, 5-hydroxy-2′-methoxyflavone] | 39.39 ± 1.59 | 330.59 ± 4.04 | – | 279.7 ± 0.45 | – | – |
| COc1cccc(OC)c1-c1cc(=O)c2c(O)cccc2o1 [Compound 4, 5-hydroxy-2’,6’-dimethoxyflavone] | 28.63 ± 2.40 | 326.76 ± 6.64 | – | 325.4 ± 3.21 | – | – |
| COc1ccc(OC)c(-c2cc(=O)c3c(O)cccc3o2)c1OC [Compound 5, 5-hydroxy-2’,3’,6’-trimethoxyflavone] | 34.32 ± 0.97 | 280.02 ± 1.55 | – | 284.6 ± 0.8 | – | – |
| COc1ccc2oc(-c3ccccc3O)cc(=O)c2c1O [Compound 6, 2’,5-dihydroxy-6-methoxyflavone] | 227.55 ± 2.85 | 781.28 ± 4.38 | 366.29 ± 1.24 | 391.8 ± 1.06 | 15.81 ± 0.85 | – |
| COc1ccc(O)c(-c2cc(=O)c3c(O)cccc3o2)c1OC [Compound 7, 5,6′-dihydroxy-2′,3′-dimethoxyflavone] | 37.85 ± 1.90 | 277.56 ± 2.88 | – | 390.8 ± 0.66 | – | – |
| O=c1cc(-c2ccccc2O[C@@H]2O[C@H](CO)[C@@H](O)[C@H](O)[C@H]2O)oc2cccc(O)c12 [Compound 9, 5,2′-dihydroxyflavone 2′-O-β-glucopyranoside] | 170.56 ± 2.49 | 204.59 ± 2.26 | 20.33 ± 1.57 | 399.7 ± 0.64 | – | – |
| O=c1cc(-c2ccccc2)oc2ccc(OC3OC(COC4OC(CO)C(O)C(O)C4O)C(O)C(O)C3O)c(O)c12 (stereo not drawn) [Compound 10, 5,6-dihydroxyflavone 6-O-(6″-O-glucopyranosyl)-β-glucopyranoside] | 204.31 ± 3.31 | 624.94 ± 5.70 | 19.79 ± 1.03 | 376.1 ± 1.87 | – | – |
| O=c1cc(-c2ccccc2O)oc2cccc(O)c12 [Compound 11, 5,2′-dihydroxyflavone] | 175.83 ± 2.83 | 661.30 ± 3.81 | 44.50 ± 1.35 | 371.5 ± 0.66 | 0.07 ± 0.01 | – |
| O=c1cc(-c2ccccc2)oc2ccc(O)c(O)c12 [Compound 12, 5,6-dihydroxyflavone] | 1522.38 ± 7.31 | 1052.41 ± 5.51 | 1060.42 ± 5.33 | 362.2 ± 0.39 | 54.25 ± 1.03 | – |
| O=c1cc(-c2ccccc2)oc2cc(O)cc(O)c12 [Compound 13, 5,7-dihydroxyflavone] | 227.51 ± 1.83 | 728.26 ± 1.08 | – | 330.1 ± 1.77 | 0.08 ± 0.01 | – |
| CC1OC(OCC2OC(Oc3c(-c4ccc(O)cc4)oc4cc(O)cc(O)c4c3=O)C(O)C(O)C2O)C(O)C(O)C1O (stereo not drawn) [Compound 15, kaempferol 3-O-(6″-O-α-rhamnopyranosyl)-β-glucopyranoside] | 250.72 ± 1.65 | 702.29 ± 2.47 | 56.81 ± 1.52 | 407.4 ± 1.41 | 0.40 ± 0.06 | – |
| O=c1c(OC2OC(COC3OCC(O)C(O)C3O)C(O)C(O)C2O)c(-c2ccc(O)cc2)oc2cc(O)cc(O)c12 (stereo not drawn) [Compound 16, kaempferol-3-O-(6″-O-β-xylopyranosyl)-β-glucopyranoside] | 300.29 ± 1.87 | 717.32 ± 3.47 | 74.40 ± 1.49 | 364.3 ± 1.79 | 0.67 ± 0.06 | – |
| O=c1c(O)c(-c2ccc(O)cc2)oc2cc(O)cc(O)c12 [Compound 17, kaempferol] | 792.53 ± 7.31 | 1095.04 ± 1.85 | 848.64 ± 3.49 | – | 36.87 ± 1.20 | 276.9 ± 1.41 |
| O=c1c(OC2OC(COC3OCC(O)C(O)C3O)C(O)C(O)C2O)c(-c2ccc(O)c(O)c2)oc2cc(O)cc(O)c12 (stereo not drawn) [Compound 18, quercetin 3-O-(6″-O-β-xylopyranosyl)-β-glucopyranoside] | 1336.75 ± 6.33 | 1147.52 ± 7.06 | 1401.11 ± 2.64 | 303 ± 3.33 | 63.98 ± 1.75 | – |
| C[C@@H]1O[C@@H](OC[C@H]2O[C@@H](Oc3c(-c4ccc(O)c(O)c4)oc4cc(O)cc(O)c4c3=O)[C@H](O)[C@@H](O)[C@@H]2O)[C@H](O)[C@H](O)[C@H]1O [Compound 19, quercetin 3-O-(6″-O-α-rhamnopyranosyl)-β-glucopyranoside] | 1467.53 ± 5.48 | 1149.16 ± 5.25 | 1258.68 ± 3.49 | – | 52.98 ± 1.35 | 445.32 ± 0.35 |
